# Measured values from paper PMC8308625, “Preclinical Studies in Anti-Trypanosomatidae Drug Development” (Pharmaceuticals, 2021).
# Read-outs that look alike come from different tables or passages of the source.
# Assays:
# L. braziliensis = conditions: Table 4, curcuminoids; ref [14]; read-out: EC50 ± SD L. brazils; cited from earlier work
# [1] = tested on: L. infantum reference strain (MHOM/BR/2002/LPC-RPV); experiment: Growth inhibition of L. infantum reference strain promastigotes (resazurin); conditions: read-out: EC50 ± SD Lin–Ref, L. infantum reference strain
# T. cruzi = conditions: read-out: EC50 ± SD T. cruzi, cited from earlier work
# T. brucei = experiment: Growth inhibition of T. brucei bloodstream form trypomastigotes (resazurin); type: cell-based, Trypanosoma brucei brucei; conditions: for EC50: read-out: EC50 ± SD T. brucei
# Procedure: Compounds were dissolved in dimethylsulfoxide (DMSO).
# L. amazonensis = experiment: Growth inhibition of L. amazonensis promastigotes (resazurin); conditions: read-out: EC50 ± SD L. amaz; Table 4, curcuminoids
# [2] = tested on: L. infantum veterinary isolate (MCAN_UY_2015_gPL8); experiment: Growth inhibition of L. infantum veterinary isolate promastigotes (resazurin); conditions: for EC50: read-out: EC50 ± SD Lin–Vet, Table 4, curcuminoids, L. infantum veterinary isolate
# [3] = Liver fraction stability (cytosolic and microsomal fraction of rat hepatocytes, TLC); type: in vitro ADME; conditions: rat hepatocyte cytosolic and microsomal fractions, 37 °C
# Procedure: For the determination of the stability in the different fractions, (cytosolic and microsomal of rat hepatocytes) the different proteins present in them were used. The fractions were prepared according to the previously reported protocol. […] The final concentration of the molecules in the aqueous medium was 400 µM and prepared from a stock in DMSO of 40 mM. The solutions were homogenized and incubated at 37 °C at 10 min, 30 min, 1 h, 2 h, 3 h and 4 h. (by TLC). For this, it was incubated at 37 °C in a volume of 1 mL: 2.5 µL of 30 mM Magnesium Chloride (MgCl); 2.5 µL of 40 mM Nicotinamide Adenosine Dinucleotide Phosphate (NADP+); 5 µL of 350 mM Glucose 6- Phosphate (Glu6P); 5 µL of Glucose 6- phosphate dehydrogenase (Glu6PD) 50 U/mL, 5 µL of the stock of 40 mM compounds and the volume of the Phosphate Buffer (pH = 7) must be such that cytosolic (CF) and microsomal (MF) fraction FC and FM present a final protein concentration of 0.1 mg/mL. After that, the stability of compounds 796 and 1019 in the cytosolic (FCF) and microsomal (FMF) fraction of rat hepatocytes was evaluated at different times (1–4 h). Thin-layer chromatography of ethyl acetate extracts was conducted to evaluate the presence of decomposition products. The mobile phase used for these TLCs was n-hexane: ethyl acetate (7: 3).
# [4] = tested on: J774.1 murine macrophages; experiment: Nonspecific cytotoxicity in murine macrophages (MTT); conditions: read-out: EC50 ± SD MΦ; murine macrophages; footnote: J774.1 macrophages or differentiated THP-1 monocytes
# fibroblasts (NCTC929) = experiment: Cytotoxicity in fibroblasts; type: cell-based; conditions: read-out: EC50 ± SD Fibroblasts
# Text: Table 5 Cytotoxicity and selectivity index of reference drugs and selected molecules. | column: EC50 ± SD (µM) ^a / Fibroblasts
# [5] = Table 4, curcuminoids, ref [14]
# [6] = Trypanosoma brucei, Table 3, thiazolidene hydrazines
# [7] = Table 3, thiazolidene hydrazines, ref [13],[16],[19],[23],[25]
# [8] = Table 3, thiazolidene hydrazines
Compound,"EC50 ([1]; Table 4, curcuminoids) [µM]",EC50 (L. amazonensis) [µM],"EC50 (T. brucei; Table 4, curcuminoids) [µM]",EC50 (L. braziliensis) [µM],EC50 (T. cruzi; [5]) [µM],EC50 (T. cruzi; [7]) [µM],further results
O=C(C=CC=Cc1cccs1)C=CC=Cc1cccs1 [Compound 798],3 ± 0.5,,,19 ± 5,13 ± 1,,
Clc1ccc(-c2csc(N/N=C/C=C/c3ccco3)n2)cc1 [Compound 901],,,,,,1.2 ± 0.3,EC50 (T. brucei; [6]): 5 ± 1 µM
C=CCNC(=S)NN=CC=Cc1ccc(C)o1 [Compound 263],,,,,,5 ± 1,"EC50 [1, 8]: < 0.3 µM"
C=CCn1c(-c2ccc(Cl)cc2)cs\c1=N/N=C/C(C)=C/c1ccco1 [Compound 873],,,,,,0.09 ± 0.02,EC50 (T. brucei; [6]): 14 ± 3 µM
O=C1C(=CC=Cc2cccs2)CCCC1=CC=Cc1cccs1 [Compound 1245],< 0.3,,16 ± 3,16 ± 1,0.6 ± 0.2,,
O=C1C(=Cc2ccccc2)CCCC1=Cc1ccccc1 [Compound 799],< 0.3,5 ± 1,1.7 ± 0.5,4.2 ± 0.9,5 ± 1,,EC50 [2]: 12 ± 3 µM; metabolic stability: time compound detected / degraded [3]: < 1 h; EC50 [4]: 115 ± 8 µM
C=CCn1c(-c2ccc(Cl)cc2)csc1=NN=Cc1ccsc1 [Compound 877],,,,,,15 ± 3,EC50 (T. brucei; [8]): 10 ± 1 µM
CC(C=CC(=O)C=CC(C)=Cc1ccco1)=Cc1ccco1 [Compound 809],3 ± 1,16 ± 2,,6 ± 1,8 ± 2,,trypanosomicidal effect on T. brucei (T. brucei): no trypanosomicidal effect; growth inhibitory / trypanosomicidal effect on the L. infantum canine-derived isolate [2]: no trypanosomicidal effect; EC50 [4]: 33 ± 8 µM; EC50 (fibroblasts (NCTC929)): 543 ± 6 µM
O=C(NN=CC=Cc1ccco1)c1cnn(-c2ccccc2)c1 [Compound 1366],,,,,,12 ± 2,

# Now from value to compound, other results behind:
"EC50 ([1]; Table 4, curcuminoids) [µM]",EC50 (L. amazonensis) [µM],"EC50 (T. brucei; Table 4, curcuminoids) [µM]",Compound,EC50 (L. braziliensis) [µM],EC50 (T. cruzi; [5]) [µM],EC50 (T. cruzi; [7]) [µM],further results
< 0.3,18 ± 4,,O=C1C(=CC=Cc2ccco2)CCC1=CC=Cc1ccco1 [Compound 1223],16 ± 4,5 ± 2,,trypanosomicidal effect on T. brucei (T. brucei): no trypanosomicidal effect; growth inhibitory / trypanosomicidal effect on the L. infantum canine-derived isolate [2]: no trypanosomicidal effect
5 ± 1,10 ± 6,1.8 ± 0.5,O=C(C=Cc1ccco1)C=Cc1ccco1 [Compound 795],6 ± 2,24 ± 2,,EC50 [2]: 10 ± 2 µM; metabolic stability: time compound detected / degraded [3]: < 1 h; EC50 [4]: 115 ± 2 µM; EC50 (fibroblasts (NCTC929)): 114 ± 6 µM
< 0.3,,17 ± 2,O=C(C=CC=Cc1ccco1)C=CC=Cc1ccco1 [Compound 793],,5 ± 0.7,,
,,16,O=C(C=CC=Cc1ccco1)C=CC=Cc1cccs1 [Compound 1414],,12 ± 1,,
